{"source": "patent US20100204203A1", "about": "“Chemical Compounds 637: Pyridopyrimidinediones as PDE4 Inhibitors” (priority 2007, published 2010)", "data": [{"target": "T1, recombinant Human Phosphodiesterase B2 (PDE4B2) (Homo sapiens, UniProt Q07343)", "T1 sequence (Q07343 1-564 isoform Q07343-2)": "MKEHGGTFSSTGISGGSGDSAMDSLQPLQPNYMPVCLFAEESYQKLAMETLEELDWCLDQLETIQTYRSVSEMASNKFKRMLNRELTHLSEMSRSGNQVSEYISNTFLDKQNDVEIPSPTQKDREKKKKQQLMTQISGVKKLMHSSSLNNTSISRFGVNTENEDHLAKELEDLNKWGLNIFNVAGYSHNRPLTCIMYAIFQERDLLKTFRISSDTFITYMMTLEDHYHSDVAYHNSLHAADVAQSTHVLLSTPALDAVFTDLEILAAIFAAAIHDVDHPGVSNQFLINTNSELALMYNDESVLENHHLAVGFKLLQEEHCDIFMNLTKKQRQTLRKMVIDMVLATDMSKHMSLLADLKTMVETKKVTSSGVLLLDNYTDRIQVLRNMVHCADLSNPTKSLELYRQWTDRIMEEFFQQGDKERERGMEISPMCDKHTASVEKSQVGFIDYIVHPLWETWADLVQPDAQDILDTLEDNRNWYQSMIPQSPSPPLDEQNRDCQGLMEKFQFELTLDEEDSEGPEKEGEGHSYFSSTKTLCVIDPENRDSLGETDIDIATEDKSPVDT", "test": "Human Phosphodiesterase B2 Alpha Screen Assay", "assay_type": "biochemical", "details": "Alpha Screen cAMP kit; 15 min preincubation, 60 min reaction at room temperature; Xlfit model 205; read-out: PDE4B2 pIC50 (converted)", "procedure": "Human Phosphodiesterase B2 Alpha Screen Assay\nThe assay uses recombinant Human Phosphodiesterase B2 (PDE4B2) produced in house (PrAZL0133), stored at −20° C. The substrate uses cAMP, part of the Alpha Screen cAMP kit (Perkin Elmer, Cat# 6760625M), stored at 4° C. The Alpha Screen kit also includes biotinylated cAMP, acceptor and donor beads.\nThe assay additions were as follows: Test compounds and controls were added to white 384-well flat-bottom plates (Greiner, Cat#781075), 0.2 μl in 100% DMSO, followed by 10 μl PDE4B2 in reaction buffer. The reaction buffer constitution was: 50 mM Tris (pH 7.5), 8.3 mM MgCl2, 1.7 mM EGTA and 0.01% (w/v) Brij®35. The enzyme and the compounds were incubated at room temperature for 15 minutes. Then 10 μl cAMP in reaction buffer was added. The assay was stopped after 60 minutes incubation at room temperature by adding 10 μl acceptor beads in detection buffer with 40 mM EDTA. The detection buffer constitution was: 5 mM Tris (pH 7.5), 0.1% (w/v) BSA and 0.1% (v/v) Tween 20. This addition followed by an addition of 10 μl donor beads in detection buffer, with biotinylated cAMP. The plates were then incubated, dark at room temperature, for 5 hours followed by measurement on a Fusion™-α analyser. pIC50 values (presented in Table 14) were determined using Xlfit curve fitting using model 205.", "units": {"IC50": "nM"}, "values": [{"smiles": "O=C(N[C@H]1CC[C@@H](n2c(=O)c3cc(F)cnc3n(Cc3ccc(F)cc3)c2=O)CC1)c1cn2ccccc2n1", "note": "[Example 9, N-{cis-4-[6-fluoro-1-(4-fluorobenzyl)-2,4-dioxo-1,4-dihydropyrido[2,3-d]pyrimidin-3(2H)-yl]cyclohexyl}imidazo[1,2-a]pyridine-2-carboxamide]", "IC50": 3.16}, {"smiles": "O=C(N[C@H]1CC[C@@H](n2c(=O)c3cc(F)cnc3n(C3CCCC3)c2=O)CC1)c1cn2ccccc2n1", "note": "[Example 7, N-[cis-4-(1-cyclopentyl-6-fluoro-2,4-dioxo-1,4-dihydropyrido[2,3-d]pyrimidin-3(2H)-yl)cyclohexyl]imidazo[1,2-a]pyridine-2-carboxamide]", "IC50": 0.631}]}, {"target": "T1, recombinant Human Phosphodiesterase B2 (PDE4B2)", "test": "Human Phosphodiesterase B2 Radiometric Assay (yttrium silicate SPA beads, [3H]cyclic AMP)", "assay_type": "biochemical", "details": "recombinant human PDE4B2, radiometric SPA assay, 8 nM [3H]cyclic AMP; read-out: PDE4B2 pIC50 (converted)", "method_in_brief": "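Compounds were preincubated 30 min at 30 °C with 0.1 mg/mL PDE4B2 in 50 mM HEPES pH 7.5, 8.3 mM MgCl2, 1.7 mM EGTA, 0.01% Brij 35. Then 8 nM [3H]cAMP was added for 20 min, stopped with yttrium silicate SPA beads plus 18 mM ZnSO4 capturing product 5′AMP; pIC50 by curve fitting.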", "units": {"IC50": "nM"}, "values": [{"smiles": "Cc1cnc(C(=O)N[C@H]2CC[C@@H](n3c(=O)c4cc(F)cnc4n(-c4cccc(-c5ccc(CN6C[C@@H](C)N[C@@H](C)C6)cc5)c4)c3=O)CC2)cn1", "note": "[Example 361, N-{cis-4-[1-(4′-{[(3R,5S)-3,5-dimethylpiperazin-1-yl]methyl}biphenyl-3-yl)-6-fluoro-2,4-dioxo-1,4-dihydropyrido[2,3-d]pyrimidin-3(2H)-yl]cyclohexyl}-5-methylpyrazine-2-carboxamide]", "IC50": 0.2}, {"smiles": "CN1CCCN(Cc2ccc(-c3cccc(-n4c(=O)n([C@H]5CC[C@@H](NC(=O)[C@@H](N)Cc6ccccc6)CC5)c(=O)c5cc(F)cnc54)c3)cc2)CC1", "note": "[Example 312, N-{cis-4-[6-fluoro-1-{4′-[(4-methyl-1,4-diazepan-1-yl)methyl]biphenyl-3-yl}-2,4-dioxo-1,4-dihydropyrido[2,3-d]pyrimidin-3(2H)-yl]cyclohexyl}-L-phenylalaninamide]", "IC50": 0.2}, {"smiles": "O=C(N[C@H]1CC[C@@H](n2c(=O)c3cc(F)cnc3n(CCc3ccccc3)c2=O)CC1)c1cn2cc(F)ccc2n1", "note": "[Example 38, 6-fluoro-N-{cis-4-[6-fluoro-2,4-dioxo-1-(2-phenylethyl)-1,4-dihydropyrido[2,3-d]pyrimidin-3(2H)-yl]cyclohexyl}imidazo[1,2-a]pyridine-2-carboxamide]", "IC50": 3.16}, {"smiles": "O=c1c2cc(F)cnc2n(-c2cccc(-c3ccc(O)cc3CN3CCCOCC3)c2)c(=O)n1[C@H]1CC[C@@H](NCc2cn3cc(F)ccc3n2)CC1", "note": "[Example 254, 6-Fluoro-3-(cis-4-{[(6-fluoroimidazo[1,2-a]pyridin-2-yl)methyl]amino}cyclohexyl)-1-[4′-hydroxy-2′-(1,4-oxazepan-4-ylmethyl)biphenyl-3-yl]pyrido[2,3-d]pyrimidine-2,4(1H,3H)-dione]", "IC50": 0.0316}, {"smiles": "Cc1cccc(C(=O)N[C@H]2CC[C@@H](n3c(=O)c4cc(F)cnc4n(-c4cccc(-c5ccc(CN6C[C@@H](C)N[C@@H](C)C6)cc5)c4)c3=O)CC2)n1", "note": "[Example 290, N-{cis-4-[1-(4′-{[(3R,5S)-3,5-dimethylpiperazin-1-yl]methyl}biphenyl-3-yl)-6-fluoro-2,4-dioxo-1,4-dihydropyrido[2,3-d]pyrimidin-3(2H)-yl]cyclohexyl}-6-methylpyridine-2-carboxamide]", "IC50": 0.01}, {"smiles": "O=C(N[C@H]1CC[C@@H](n2c(=O)c3cc(F)cnc3n(-c3cccc(-c4ccc(O)cc4)c3)c2=O)CC1)c1cn2cc(F)ccc2n1", "note": "[Example 22, 6-fluoro-N-{cis-4-[6-fluoro-1-(4′-hydroxybiphenyl-3-yl)-2,4-dioxo-1,4-dihydropyrido[2,3-d]pyrimidin-3(2H)-yl]cyclohexyl}imidazo[1,2-a]pyridine-2-carboxamide.]", "IC50": 0.0251}]}]}
